Results published in patent publication US11246309B2, “Preserving agent for organs or tissue and preservation method for organs or tissue” (ISHIHARA SANGYO KAISHA, LTD., priority 2015, dated 2022).

Legend:
liver [1] = test: Organ preservation test: hepatic histopathological change after preservation at 4° C.; design: species or system SD rats; details: additives in UW solution, score 0 to 3.0 per sample
Procedure: The formulations of preserving solutions containing UW solution, and a combination of quercetin and sugar were evaluated using a hepatic histopathological change as an index.
Williams solution only, Williams solution containing only quercetin (10 μg/mL), Williams solution containing only fructose (0.2M), Williams solution containing only sucrose (0.1M), Williams solution containing quercetin (10 μg/mL) and fructose (0.2M), or Williams solution containing quercetin (10 μg/mL) and sucrose (0.1M) was used as an organ perfusion solution. Subsequently, as an organ preserving solution, UW solution only, UW solution containing only quercetin (10 μg/mL), UW solution containing only fructose (0.2M), UW solution containing only sucrose (0.1M), UW solution containing quercetin (10 μg/mL) and fructose (0.2M) or UW solution containing quercetin (10 μg/mL) and sucrose (0.1M) was used.
SD rats (male, body weight=264.1 g to 317.2 g) were injected with heparin from the portal vein under anesthesia. Thereafter, they were perfused with a physiological saline solution (8 cmH2O, about 100 mL) at room temperature, and then perfused with each organ perfusion solution (8 cmH2O, about 100 mL) at room temperature. Thereafter, the liver was excised, immersed in 20 mL of each organ preserving solution, and preserved at 4° C. 1 day after and 2 days after the preservation was started, all liver samples were immobilized using a 10% phosphate buffer formalin aqueous solution, and embedded in paraffin according to the standard method. Each sample was sliced into about 6 μm and a hematoxylin-eosin staining sample was prepared, followed by microscopic examination. The degrees of the observed histopathological change were converted to scores as shown below, and summed as cumulative values.
Score 0: no change was observed, Score 0.5: slight change was observed, Score 1.0: small change was observed, Score 2.0: intermediate change was observed, Score 3.0: great change was observed.

liver [2] = test: Organ preservation test: rat liver preserved at 4° C., ALT in organ immersion solution; design: species or system SD rats; details: additives in UW solution, liver at 4° C., mean of n=3 ± SD
Procedure: The protective action of a preserving solution for organs or tissue used in organ transplantation or tissue transplantation was assumed, and formulations of preservative solutions containing UW solution, and a combination of quercetin and sugar were evaluated using liver damage degree as an index. Williams solution (GIBCO, No. 12551-032) only, Williams solution containing quercetin (Sigma-Aldrich, 337951-25G) (10 μg/mL), Williams solution containing quercetin (10 μg/mL) and fructose (0.05M to 0.4M) (Kanto Chemical Co., Inc., Code No. 16065-00) (0.05M to 0.4M), or Williams solution containing quercetin (10 μg/mL) and sucrose (0.025M to 0.2M) (Nacalai Tesque, Inc., Code No. 30404-45) (0.025M to 0.2M) was used as an organ perfusion solution. Subsequently, UW solution (VSP1000, […] (cold storage solution) 1000 mL: Astellas Pharma Inc.) only, UW solution containing quercetin (10 μg/mL), UW solution containing quercetin (10 μg/mL) and fructose (0.05M to 0.4M), or UW solution containing quercetin (10 μg/mL) and sucrose (0.025M to 0.2M) was used as an organ preserving solution. SD rats (male, body weight=255.4 g to 339.0 g) were injected with heparin from the portal vein under anesthesia. Thereafter, they were perfused with a physiological saline solution (8 cmH2O, about 100 mL) at room temperature, and then perfused with each organ perfusion solution (8 cmH2O, about 100 mL) at room temperature. Thereafter, the liver was excised, immersed in 20 mL of each organ preserving solution, and preserved at 4° C. A part of each organ preserving solution was collected at 1 day after, 3 days after, 5 days after, and 7 days after the preservation was started, and ALT (alanine aminotransferase) (IU/L) was measured as an index of the degree of liver damage due to low-temperature preservation. The measured ALT are shown in Tables 1 and 2 (average value of n=3±standard deviation).

[3] = 1 day after preservation at 4° C. was started
[4] = 2 days after preservation at 4° C. was started

Row | SMILES | Histopathological Change: Diffuse Vacuolar Degeneration (Cumulative Score of n = 3) (liver [1]; [3]) | Histopathological Change: Sporadic Single Cell Cloudy Swelling (Cumulative Score of n = 3) (liver [1]; [3]) | Histopathological Change: Sporadic Single Cell Necrosis (Cumulative Score of n = 3) (liver [1]; [3]) | Histopathological Change: Diffuse Vacuolar Degeneration (Cumulative Score of n = 3) (liver [1]; [4]) | Histopathological Change: Sporadic Single Cell Cloudy Swelling (Cumulative Score of n = 3) (liver [1]; [4]) | Histopathological Change: Sporadic Single Cell Necrosis (Cumulative Score of n = 3) (liver [1]; [4]) | ALT Value in Organ Immersion Solution (liver [2]; Table 1, 1 day after) [IU/L] | ALT Value in Organ Immersion Solution (liver [2]; Table 1, 3 days after) [IU/L] | ALT Value in Organ Immersion Solution (liver [2]; Table 1, 5 days after) [IU/L] | ALT Value in Organ Immersion Solution (liver [2]; Table 1, 7 days after) [IU/L] | ALT Value in Organ Immersion Solution (liver [2]; Table 2, 1 day after) [IU/L] | ALT Value in Organ Immersion Solution (liver [2]; Table 2, 3 days after) [IU/L] | ALT Value in Organ Immersion Solution (liver [2]; Table 2, 5 days after) [IU/L] | ALT Value in Organ Immersion Solution (liver [2]; Table 2, 7 days after) [IU/L]
1 | OC[C@H]1O[C@@](CO)(O[C@H]2O[C@H](CO)[C@@H](O)[C@H](O)[C@H]2O)[C@@H](O)[C@@H]1O [0.1M Sucrose, sucrose] | 3.0 | 2.0 | 0.5 | 3.0 | 2.5 | 1.0 |  |  |  |  |  |  |  | 
2 | O=C(CO)[C@@H](O)[C@H](O)[C@H](O)CO [0.2M Fructose, fructose] | 2.0 | 2.5 | 1.0 | 1.5 | 1.0 | 0.5 |  |  |  |  |  |  |  | 
3 | O=c1c(O)c(-c2ccc(O)c(O)c2)oc2cc(O)cc(O)c12 [Quercetin 10 μg/mL, quercetin] | 3.0 | 1.5 | 0.0 | 3.0 | 2.0 | 0.5 | 65 ± 71 | 90 ± 82 | 98 ± 77 | 117 ± 71 | 62 ± 68 | 108 ± 121 | 126 ± 135 | 148 ± 144
